# Counter-ions that a name gives are not always drawn. Like-named read-outs stand apart in the source and are kept apart here.
# Columns and labels:
# [1] = system: Bacillus subtilis; experiment: Minimum Growth Inhibitory Concentration (MIC), Bacillus subtilis; assay type: cell-based; details: Table 1, bacterium 2: Bacillus subtilis
# Description: (§1) Minimum Growth Inhibitory Concentration (MIC) mcg/ml
# [2] = system: Klebsiella pneumoniae GN 69; experiment: Minimum Growth Inhibitory Concentration (MIC), Klebsiella pneumoniae GN 69; assay type: cell-based; details: GN69; Table 1, bacterium 4: Klebsiella pneumoniae GN 69
# Description: as §1
# 4. Klebsiella pneumoniae GN 69
# [3] = system: Pseudomonas aeruginosa MB 3833; experiment: Minimum Growth Inhibitory Concentration (MIC), Pseudomonas aeruginosa MB 3833; assay type: cell-based; details: MB3833; Table 1, bacterium 8: Pseudomonas aeruginosa MB 3833
# Description: as §1
# 8. Pseudomonas aeruginosa MB 3833
# [4] = system: Staphylococcus aureus 209PJC1; experiment: Minimum Growth Inhibitory Concentration (MIC), Staphylococcus aureus 209PJC1; assay type: cell-based
# Description: as §1
# 1. Staphylococcus aureus 209PJC1
# as §1
# 2. Staphylococcus aureus 209 PJC1
# [5] = system: Escherichia coli RGN 823; experiment: Minimum Growth Inhibitory Concentration (MIC), Escherichia coli RGN 823; assay type: cell-based; details: RGN823; Table 1, bacterium 3: Escherichia coli RGN 823
# Description: as §1
# 3. Escherichia coli RGN 823
# [6] = system: Enterobacter cloacae G0006; experiment: Minimum Growth Inhibitory Concentration (MIC), Enterobacter cloacae G0006; assay type: cell-based; details: Table 1, bacterium 6: Enterobacter cloacae G0006
# Description: as §1
# 6. Enterobacter cloacae G0006
# [7] = system: Proteus vulgaris OX19; experiment: Minimum Growth Inhibitory Concentration (MIC), Proteus vulgaris OX19; assay type: cell-based; details: Table 1, bacterium 5: Proteus vulgaris OX19
# Description: as §1
# 5. Proteus vulgaris OX19
# [8] = system: Serratia marcescens N 01; experiment: Minimum Growth Inhibitory Concentration (MIC), Serratia marcescens N 01; assay type: cell-based; details: N01; Table 1, bacterium 7: Serratia marcescens N 01
# Description: as §1
# 7. Serratia marcescens N 01
# [9] = system: Streptococcus faecalis ATCC 8043; experiment: Minimum Growth Inhibitory Concentration (MIC), Streptococcus faecalis ATCC 8043; assay type: cell-based; details: Enterococcus faecalis, ATCC8043; Table 1, bacterium 9: Streptococcus faecalis ATCC 8043
# Description: as §1
# 9. Streptococcus faecalis ATCC 8043
# [10] = system: Proteus vulgaris GN 76; experiment: Minimum Growth Inhibitory Concentration (MIC), Proteus vulgaris GN 76; assay type: cell-based
# Description: as §1
# 10. Proteus vulgaris GN 76
# as §1
# 8. Proteus vulgaris GN 76
# [11] = system: Enterobacter cloacae G0005; experiment: Minimum Growth Inhibitory Concentration (MIC), Enterobacter cloacae G0005; assay type: cell-based; details: Table 1, bacterium 11: Enterobacter cloacae G0005
# Description: as §1
# 11. Enterobacter cloacae G0005
# [12] = system: Cephalosporinase-producing Escherichia coli GN206; experiment: Treatment of experimental infection in mice (Escherichia coli GN206); assay type: in vivo; details: intraperitoneal infection 1.25×10^6 CFU/mouse, subcutaneous one hour after infection, survival at one week
# [13] = Serum concentration in mice after subcutaneous administration; assay type: in vivo; details: mouse, sc, subcutaneous 25 mg/kg; for concentration at 0.5 h: 1/2 hr; for concentration at 0.25 h: 1/4 hr; for concentration at 5 min: 1/12 hr
# Description: The experiment was conducted by using 3 mice (average body weight 20 g) in each group, subcutaneously administering 25 mg/kg of the sample, taking blood samples at predetermined intervals, separating the serum and measuring the sample concentration by an antibacterial activity test using Escherichia coli as a testing bactera.
# [14] = Toxicity test in mice (intravenous); assay type: in vivo; details: for LD50 at 168 h: mouse, in vivo
# Description: Further, the compound of Example 28 was intravenously adminstered to 3 mice at a dose of 1 g/kg and also the compounds of Examples 34 and 51 were similarly administered at a dose of 3 g/kg respectively, and the number of survivor was examined after a week.
# [15] = system: Proteus mirabilis GN 79; experiment: Minimum Growth Inhibitory Concentration (MIC), Proteus mirabilis GN 79; assay type: cell-based; details: Proteus mirabilis, GN79, read-out: Minimum Growth Inhibitory Concentration (MIC)
# Description: as §1
# 6. Proteus mirabilis GN 79
# [16] = system: Proteus rettgeri GN624; experiment: Minimum Growth Inhibitory Concentration (MIC), Proteus rettgeri GN624; assay type: cell-based; details: Providencia rettgeri, GN624, read-out: Minimum Growth Inhibitory Concentration (MIC)
# Description: as §1
# 9. Proteus rettgeri GN624
# [17] = system: Serratia marcescens No. 2; experiment: Minimum Growth Inhibitory Concentration (MIC), Serratia marcescens No. 2; assay type: cell-based; details: Serratia marcescens, NO.2, read-out: Minimum Growth Inhibitory Concentration (MIC)
# Description: as §1
# 10. Serratia marcescens No. 2
# [18] = system: Salmonella typhimurium LT2; experiment: Minimum Growth Inhibitory Concentration (MIC), Salmonella typhimurium LT2; assay type: cell-based; details: Salmonella enterica, TYPHIMURIUM, read-out: Minimum Growth Inhibitory Concentration (MIC)
# Description: as §1
# 7. Salmonella typhimurium LT2
# [19] = system: Klebsiella pneumoniae PCI 602; experiment: Minimum Growth Inhibitory Concentration (MIC), Klebsiella pneumoniae PCI 602; assay type: cell-based; details: Klebsiella pneumoniae, PCI602, read-out: Minimum Growth Inhibitory Concentration (MIC)
# Description: as §1
# 5. Klebsiella pneumoniae PCI 602
# [20] = system: Eshcerichia coli GN 206; experiment: Minimum Growth Inhibitory Concentration (MIC), Escherichia coli GN 206; assay type: cell-based
# Description: as §1
# 4. Eshcerichia coli GN 206
# [21] = system: Escherichia coli NIHJ JC2; experiment: Minimum Growth Inhibitory Concentration (MIC), Escherichia coli NIHJ JC2; assay type: cell-based; details: Escherichia coli, NIHJJC2, read-out: Minimum Growth Inhibitory Concentration (MIC)
# Description: as §1
# 3. Escherichia coli NIHJ JC2
# [22] = system: Staphylococcus aureus Smith; experiment: Minimum Growth Inhibitory Concentration (MIC), Staphylococcus aureus Smith; assay type: cell-based; details: Staphylococcus aureus, read-out: Minimum Growth Inhibitory Concentration (MIC)
# Description: as §1
# 1. Staphylococcus aureus Smith
# [23] = Table 1, bacterium 1: Staphylococcus aureus 209PJC1, read-out: Minimum Growth Inhibitory Concentration (MIC)
# [24] = GN76, Table 1, bacterium 10: Proteus vulgaris GN 76, read-out: Minimum Growth Inhibitory Concentration (MIC)
MIC [1] [µg/mL],MIC [2] [µg/mL],MIC [3] [µg/mL],"MIC [4, 23] [µg/mL]",MIC [5] [µg/mL],MIC [6] [µg/mL],MIC [7] [µg/mL],MIC [8] [µg/mL],SMILES,MIC [9] [µg/mL],"MIC [10, 24] [µg/mL]",MIC [11] [µg/mL],ED50 [12] [mg/mouse],concentration at 0.5 h [13] [ng/mL],concentration at 0.25 h [13] [ng/mL],concentration at 5 min [13] [ng/mL],concentration at 1 h [13] [ng/mL],further results
1.56,≤ 0.025,6.25,0.05,≤ 0.025,0.78,0.1,0.05,"CO/N=C(\C(=O)N[C@@H]1C(=O)N2C(C(=O)[O-])=C(CSc3cc[n+](C)c4c3CCC4)CS[C@H]12)c1csc(N)n1 [Example 2, (6R,7R)-7-[(Z)-2-(2-Aminothiazol-4-yl)-2-methoxyiminoacetamido]-3-[(2,3-cyclopenteno-1-methylpyridinium-4-yl)thiomethyl]-ceph-3-em-4-carboxylate]",–,–,–,–,–,–,–,–,–
1.56,≤ 0.025,12.5,0.78,≤ 0.025,–,–,≤ 0.025,"CO/N=C(\C(=O)N[C@@H]1C(=O)N2C(C(=O)[O-])=C(CSc3cc[n+](CCS(=O)(=O)O)c4c3CCC4)CS[C@H]12)c1csc(N)n1 [Example 39, (6R,7R)-7-[(Z)-2-(2-Aminothiazol-4-yl)-2-methoxyiminoacetamido]-3-[[2,3-cyclopenteno-1-(2-sulfoethyl)pyridinium-4-yl]thiomethyl]-ceph-3-em-4-carboxylic acid sodium salt]",6.25,0.2,0.1,–,–,–,–,–,–
1.56,≤ 0.025,12.5,0.2,≤ 0.025,1.56,0.39,0.05,"CO/N=C(\C(=O)N[C@@H]1C(=O)N2C(C(=O)[O-])=C(CSc3ccc4c([n+]3C)CCC4)CS[C@H]12)c1csc(N)n1 [Example 1, (6R,7R)-7-[(Z)-2-(2-Aminothiazol-4-yl)-2-methoxyiminoacetamido]-3-[(5,6-cyclopenteno-1-methylpyridinium-2-yl)thiomethyl]-ceph-3-em-4-carboxylate]",–,–,–,–,–,–,–,–,–
12.5,0.78,50,3.13,1.56,6.25,1.56,1.56,"Cc1cc(SCC2=C(C(=O)[O-])N3C(=O)[C@@H](NC(=O)/C(=N\OC[C@@H](N)C(=O)O)c4csc(N)n4)[C@H]3SC2)c2c([n+]1C)CCCC2 [Example 12, (6R,7R)-7-[(Z)-2-(2-Aminothiazol-4-yl)-2-(2D-2-amino-2-carboxyethoxyimino)acetamido]-3-[(6-methyl-2,3-cyclohexeno-1-methylpyridinium-4-yl)thiomethyl]-ceph-3-em-4-carboxylate]",–,–,–,–,–,–,–,–,–
0.2,0.1,6.25,0.1,0.1,0.78,0.2,0.1,"CO/N=C(\C(=O)N[C@@H]1C(=O)N2C(C(=O)[O-])=C(CSc3cc(C)[n+](C)c4c3CCC4)CS[C@H]12)c1csc(N)n1 [Example 4, (6R,7R)-7-[(Z)-2-(2-Aminothiazol-4-yl)-2-methoxyiminoacetamido]-3-[(6-methyl-2,3-cyclopenteno-1-methylpyridinium-4-yl)thiomethyl]-ceph-3-em-4-carboxylate]",–,–,–,–,–,–,–,–,–
12.5,0.39,6.25,1.56,0.2,6.25,0.1,0.05,"C[n+]1c(SCC2=C(C(=O)[O-])N3C(=O)[C@@H](NC(=O)/C(=N\OC(C)(C)C(=O)O)c4csc(N)n4)[C@H]3SC2)ccc2c1CCCC2 [Example 18, (6R,7R)-7-[(Z)-2-(2-Aminothiazol-4-yl)-2-(1-methyl-1-carboxyethoxyimino)acetamido]-3-[(5,6-cyclohexeno-1-methylpyridinium-2-yl)thiomethyl]-ceph-3-em-4-carboxylate]",–,–,–,–,–,–,–,–,–
–,–,–,–,–,–,–,–,CCO/N=C(\C(=O)N[C@@H]1C(=O)N2C(C(=O)O)=C(CSc3cc[n+](CC(=O)O)cc3)CS[C@H]12)c1csc(N)n1.[Na+],–,–,–,0.065,28500,31000,26000,4000,"MIC [15]: 0.39 µg/mL; MIC [16]: 1.56 µg/mL; MIC [17]: 0.2 µg/mL; MIC ([4]; Staphylococcus aureus, 209PJC1, read-out: Minimum Growth Inhibitory Concentration (MIC)): 0.39 µg/mL; MIC [18]: 0.1 µg/mL; MIC ([10]; Proteus vulgaris, GN76, read-out: Minimum Growth Inhibitory Concentration (MIC)): 0.1 µg/mL; MIC [19]: 0.05 µg/mL; MIC ([20]; GN206, read-out: Minimum Growth Inhibitory Concentration (MIC)): 0.39 µg/mL; MIC ([20]; GN206, read-out: minimum growth inhibitory concentration (MIC)): 0.39 µg/mL; survival after a week ([14]; mice, intravenous, 1 g/kg): all the mice survived; LD50 at 168 h ([14]; mice, intravenous, survivors after a week): ≥ 1000 mg/kg; MIC [21]: 0.78 µg/mL; MIC [22]: 0.78 µg/mL"
0.2,0.05,12.5,0.1,0.1,–,–,0.1,"CO/N=C(\C(=O)N[C@@H]1C(=O)N2C(C(=O)[O-])=C(CSc3cc[n+](CC(N)=O)c4c3CCC4)CS[C@H]12)c1csc(N)n1 [Example 35, (6R,7R)-7-[(Z)-2-(2-Aminothiazol-4-yl)-2-methoxyiminoacetamido]-3-[(2,3-cyclopenteno-1-carbamoylmethylpyridinium-4-yl)thiomethyl]-ceph-3-em-4-carboxylate]",0.2,0.39,0.2,–,–,–,–,–,–

SMILES,MIC [1] [µg/mL],MIC [2] [µg/mL],MIC [3] [µg/mL],"MIC [4, 23] [µg/mL]",MIC [5] [µg/mL],MIC [6] [µg/mL],MIC [7] [µg/mL],MIC [8] [µg/mL],MIC [9] [µg/mL],"MIC [10, 24] [µg/mL]",MIC [11] [µg/mL],ED50 [12] [mg/mouse],concentration at 0.5 h [13] [ng/mL],concentration at 0.25 h [13] [ng/mL],concentration at 5 min [13] [ng/mL],concentration at 1 h [13] [ng/mL],further results
"C[n+]1ccc(SCC2=C(C(=O)[O-])N3C(=O)[C@@H](NC(=O)/C(=N\OCC(=O)O)c4csc(N)n4)[C@H]3SC2)c2c1CCC2 [Example 51, (6R,7R)-7-[(Z)-2-(2-Aminothiazol-4-yl)-2-(carboxymethoxyimino)acetamido]-3-[(2,3-cyclopenteno-1-methylpyridinium-4-yl)thiomethyl]-ceph-3-em-4-carboxylic acid sodium salt]",0.05,≤ 0.025,6.25,1.56,0.1,–,–,≤ 0.025,1.56,≤ 0.025,0.05,0.37,24000,34000,27000,5400,LD50 at 168 h ([14]; iv): ≥ 3000 mg/kg
"CO/N=C(\C(=O)N[C@@H]1C(=O)N2C(C(=O)[O-])=C(CSc3cc[n+](CC(=O)O)c4c3CCC4)CS[C@H]12)c1csc(N)n1 [Example 34, (6R,7R)-7-[(Z)-2-(2-Aminothiazol-4-yl)-2-methoxyiminoacetamido]-3-[(2,3-cyclopenteno-1-carboxymethylpyridinium-4-yl)thiomethyl]-ceph-3-em-4-carboxylicacid sodium salt]",1.56,≤ 0.025,6.25,0.78,≤ 0.025,–,–,0.05,6.25,0.1,0.2,0.3,21000,35000,25000,6400,LD50 at 168 h ([14]; iv): ≥ 3000 mg/kg
